Values of other authors as cited in patent US20090306094A1 (Bristol-Myers Squibb Company, priority 2006, published 2009).
Where a name gives a salt, the structure may show the parent alone. Read-outs that look alike come from different tables or passages of the source.

How the values were obtained:
[1] = system: imatinib-resistant BCR-ABL mutants; details: number of mutants / number tested
[2] = system: imatinib-resistant BCR-ABL mutants
[3] = system: cells expressing imatinib-resistant BCR-ABL kinases
[4] = system: imatinib-resistant BCR-ABL mutants; remark: listed apart in the source
[5] = system: BCR-ABL expressing leukemic cells
BCR-ABL = target: T1, BCR-ABL (Homo sapiens, UniProt P00519)
T1 construct: BCR (N-terminal part of breakpoint cluster region protein, P11274); the other entry of the earlier key: BCR (P11274, Breakpoint cluster region protein)
T1 sequence (P00519 242-493 limits assumed): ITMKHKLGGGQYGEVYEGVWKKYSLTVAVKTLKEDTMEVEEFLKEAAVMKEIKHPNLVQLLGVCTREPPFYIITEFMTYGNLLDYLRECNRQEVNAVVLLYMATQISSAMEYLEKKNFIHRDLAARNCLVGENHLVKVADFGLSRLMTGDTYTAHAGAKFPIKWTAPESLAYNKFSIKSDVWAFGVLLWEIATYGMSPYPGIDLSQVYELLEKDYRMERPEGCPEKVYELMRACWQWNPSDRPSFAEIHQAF

[6] = system: leukemic versus normal hematopoietic cells
[7] = system: Crkl phosphorylation in primary CML patient cells; details: correlated with dephosphorylation of BCR-ABL

For Cc1cn(-c2cc(NC(=O)c3ccc(C)c(Nc4nccc(-c5cccnc5)n4)c3)cc(C(F)(F)F)c2)cn1 [AMN107], the “imatinib-resistant BCR-ABL mutants against which significantly active” value [1] is listed as 32/33 and the IC50 (wild-type BCR-ABL) is listed as […].

In the case of CP(C)(=O)c1ccc(Nc2nc(C3CCCC3)nc3c2ncn3CCc2cccc(O)c2)cc1 [AP23464], the “inhibition of imatinib-resistant BCR-ABL mutants” value [2] is given as “inhibit imatinib-resistant BCR-ABL mutants”.

For COCCNCCOc1ccc(-n2cc(-c3cccc(OC)c3)c3c(N)ncnc32)cc1 [CGP76030], the “growth and survival of cells” value [3] is listed as “inhibit the growth and survival”.

For Cc1ccc(NC(=O)c2ccc(CN3CC[C@H](N(C)C)C3)c(C(F)(F)F)c2)cc1Nc1nccc(-c2cncnc2)n1 [NS-187], the “inhibition of imatinib-resistant BCR-ABL mutants” value [4] is given as “inhibit imatinib-resistant BCR-ABL mutants”.

For Cc1cc(Nc2ncc3cc(-c4c(Cl)cccc4Cl)c(=O)n(C)c3n2)ccc1F [PD180970], the apoptosis [5] is given as “induce apoptosis” and the “inhibition of BCR-ABL” value (BCR-ABL) is given as “inhibit BCR-ABL”.

In the case of COc1cc(Nc2c(C#N)cnc3cc(OCCCN4CCN(C)CC4)c(OC)cc23)c(Cl)cc1Cl [SKI-606], the antiproliferative activity (CML cell) is listed as “potent antiproliferative activity”.

In the case of Cc1ccc(NC(=O)c2ccc(CN3CCN(C)CC3)cc2)cc1Nc1nccc(-c2cccnc2)n1 [imatinib, imatinib mesylate], the “estimated 2-year incidence of resistance” value (CML patients; blastic phase) is listed as 80%, the “estimated 2-year incidence of resistance” value (CML patients; chronic phase post-interferon-α failure) is listed as 10% and the “selectivity for leukemic versus normal hematopoietic cells” value [6] is listed as “highly selective”. For the same compound, the Crkl phosphorylation [7] was “inhibited in a dose-dependent manner”.
